Earlier results in patent publication US7214387B2, “Sustained release formulations of metformin” (Penwest Pharmaceuticals Company, priority 2002, dated 2007).

System: serum lipids

## CN(C)C(=N)NC(=N)N [metformin, N,N-dimethylimidodicarbonimidicdiamide]
Clinical studies
  effects on other lipid levels: no adverse effects
Particularly when baseline lipid levels were abnormally elevated
  mean fasting serum triglycerides, total cholesterol, and LDL cholesterol levels: lowered
